What was measured:
[1] = target: Muscarinic acetylcholine receptor M3 (Rattus norvegicus) (UniProt P08483); test: Compound was tested in vitro for its ability to displace [3H]-QNB from brain Muscarinic acetylcholine receptor
[2] = target: T1, High affinity choline transporter 1 (Mus musculus, UniProt Q8BGY9); test: In vitro ability to inhibit the transport of [3H]choline in to high affinity choline transport system HAChT
T1 sequence (Q8BGY9 whole entry): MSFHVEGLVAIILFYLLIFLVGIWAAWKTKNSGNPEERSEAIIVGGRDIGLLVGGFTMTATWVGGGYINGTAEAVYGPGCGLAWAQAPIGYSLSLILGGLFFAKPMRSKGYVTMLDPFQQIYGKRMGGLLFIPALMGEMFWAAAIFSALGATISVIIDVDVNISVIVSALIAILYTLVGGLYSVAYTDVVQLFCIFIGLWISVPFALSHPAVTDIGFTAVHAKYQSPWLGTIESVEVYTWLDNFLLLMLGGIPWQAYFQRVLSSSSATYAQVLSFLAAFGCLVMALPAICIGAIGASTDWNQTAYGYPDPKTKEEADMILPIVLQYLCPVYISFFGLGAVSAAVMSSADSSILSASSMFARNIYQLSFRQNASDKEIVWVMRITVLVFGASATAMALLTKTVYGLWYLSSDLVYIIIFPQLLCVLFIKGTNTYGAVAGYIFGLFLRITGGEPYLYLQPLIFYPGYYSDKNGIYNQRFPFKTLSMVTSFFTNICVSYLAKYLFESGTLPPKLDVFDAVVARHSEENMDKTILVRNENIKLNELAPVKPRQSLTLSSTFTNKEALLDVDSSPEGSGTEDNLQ

Sequence of Muscarinic acetylcholine receptor M3 (Rattus norvegicus) (P08483 whole entry, looked up): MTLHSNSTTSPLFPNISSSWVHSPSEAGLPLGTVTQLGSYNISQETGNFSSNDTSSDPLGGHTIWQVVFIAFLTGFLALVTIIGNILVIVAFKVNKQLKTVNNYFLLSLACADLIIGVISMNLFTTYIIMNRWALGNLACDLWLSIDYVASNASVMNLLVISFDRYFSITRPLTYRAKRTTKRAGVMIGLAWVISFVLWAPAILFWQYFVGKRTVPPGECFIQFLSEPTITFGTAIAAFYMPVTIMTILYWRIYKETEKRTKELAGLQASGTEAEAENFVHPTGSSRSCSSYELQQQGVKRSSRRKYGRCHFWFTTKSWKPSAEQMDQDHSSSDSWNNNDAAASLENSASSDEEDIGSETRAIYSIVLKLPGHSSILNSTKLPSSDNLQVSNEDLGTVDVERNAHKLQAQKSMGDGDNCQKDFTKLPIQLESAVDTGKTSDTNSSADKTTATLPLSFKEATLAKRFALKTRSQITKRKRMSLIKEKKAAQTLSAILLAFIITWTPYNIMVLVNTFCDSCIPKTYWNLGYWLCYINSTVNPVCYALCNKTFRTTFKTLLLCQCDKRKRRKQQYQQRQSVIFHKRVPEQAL

| SMILES | Displacement [1] | IC50 [2] |
| --- | --- | --- |
| CCC[N+]1(CCO)CC1 | 16% | 7.5 µM |
| CC(C)C[N+]1(CCO)CC1 | 6% | 31 µM |
| CC[N+]1(CCO)CC1 | 18% | 1.5 µM |
| CCCC[N+]1(CCO)CC1 | 9% | > 1000 µM |
| C[N+](C)(C)CCO [CHOLINE] | – | 1.6 µM |
